Test system: normal human astrocytes (NHA)
Experiment: Gene expression in NHA exposed to inflammatory cytokines (qPCR)
Format: cell-based
Conditions: for SNCA expression induction: NHA exposed to cytokine for 24 hours, no significant difference between infected and uninfected cells; for LCN2 expression induction: NHA, HPgV-infected and uninfected, exposed to cytokine for 24 hours
Experimental: As previously stated, iPSC-derived PD astrocytes show increased expression of LCN2 and GFAP following exposure to inflammatory conditions. Inflammation can additionally induce A1 phenotypic skewing in astrocytes.^4 Therefore, the analysis of mtDNA, PD astrocyte-associated genes, and A1/A2 skewing was repeated on NHA that were exposed to the inflammatory cytokine IL1β, IFNγ, or TNFα for 24 hours. mtDNA copy number was reduced in infected cells exposed to cytokines as compared to uninfected cells exposed to cytokines (FIG. 5A; IL1β p=0.0004; IFNγ p=0.001; TNFα p=0.03). […] SNCA expression was induced 10-fold following exposure to IL1β.
Normal human astrocytes (NHA): Cryopreserved NHA were obtained from Lonza. NHA were maintained in Astrocyte Basal Medium with Astrocyte Growth Medium SingleQuot supplements (Lonza). NHA were seeded at 5×10^3 cells/cm and allowed to reach confluency before splitting and seeding into new cell culture vessels, which took approximately 10 days. Medium was changed 24 hours after seeding and every subsequent 48 hours. NHA were discarded at passage 10.
Quantification of PD astrocyte associated gene expression was performed on similarly extracted RNA, following DNAse digestion and isopropanol precipitation. DNAse-treated RNA was resuspended in 50 μL of nuclease-free H2O, quantitated using the Qubit BR ssRNA kit, and diluted to 40 ng/μL. Commercially available TaqMan gene expression assays against GFAP (#Hs00909233; Fisher Scientific), LCN2 (#Hs01008571), SNCA (#Hs00240906), and ITPR2 (#Hs00181916), using FAM as a detector, were each multiplexed with GAPDH (housekeeping gene; #Hs02786624) using VIC as a detector. Each assay was run in duplicate 20 μL reactions, with 5 μL of diluted template RNA, 1 μL of each appropriate 20× assay, and 5 μL of TaqMan Fast Virus 1-step master mix. ΔΔCT was calculated as previously described.

Substance	SNCA expression induction	LCN2 expression induction
IFNγ: inflammatory cytokine	observed to a lesser extent	–
TNFα	observed to a lesser extent	significantly induced expression of LCN2 in infected cells but not uninfected cells
IL1β: inflammatory cytokine	10 fold	induced LCN2 expression in both infected and uninfected cells
